What all share (type): cell-based
One test deals with BxPC-3. Description: CellTiterGlo viability assay, BxPC-3. The following applies: Homo sapiens, BXPC-3, 72 h, read-out: IC50 BxPC-3. The method, then:
(§1) In vitro viability assay were performed to assess the effects of compounds on cell viability in selected cell lines over ˜72 hrs using the CellTiterGlo (CTG, Promega-G7573) assay. The tests were performed in duplicates with treatment of compounds at 9 points, 3.16 folds titration in 96 well plates over ˜72 hrs. The compound starting concentrations were 198 μM. Cell viability assay using CellTiterGlo in 96-well plate were performed. Compound treatment 72 hrs, standard growth conditions, duplicates. Compounds were dissolved to 40 mM with thawed […]. Compounds were serially diluted at 3.16 fold in thawed DMSO, and warmed to 37° C. before being dissolved in media (2 μl+200 μl). After compounds were dissolved in media, media containing compounds were warmed to 37° C. in incubator and then compounds in media were added to cell plates (50 μl+50 μl) in duplicates. The compounds' final concentrations were from […] to 19.9 nM. All compound solubilities were checked and recorded again, then the plates were transferred to CO2 tissue culture incubator immediately and incubated for 3 days. DMSO final concentration is 0.5%.

For the next test, the system named is HEL92.1.7. The experiment in a line: CellTiterGlo viability assay, HEL92.1.7. The following applies: Homo sapiens, HEL 92.1.7, 72 h, read-out: IC50 HEL92.1.7. In short, it runs like this:
(§2)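 CTG luminescence read-out after ~72 h compound exposure; 9 pts, 3.16-fold dilution, top final 198 μM, bottom 19.9 nM; duplicates; 0.5% DMSO final; 37 °C CO2 incubator.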

The test system of the next test is human T-lymphocyte CEM. Description: Cell proliferation (Coulter count) assay, CEM. The conditions noted are these: 72 h, read-out: absolute IC50, CEM. The method in brief:
(§3)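 Cells grown in DMEM with 10% FBS. HeLa seeded at 10 000 cells/well, compound added after 24 h, counted day 5; L1210 and CEM seeded at 60 000 cells/well with compound, counted after 48 h and 72 h respectively. IC50 is concentration halving proliferation by Coulter count.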

For the next test, the system named is RL. Description: CellTiterGlo viability assay, RL. The conditions noted are these: Homo sapiens, RL, 72 h, read-out: IC50 RL. The method in brief:
as §2
In general terms: ATP-based viability assays read luminescence as a measure of living cells.

In a further test the test system is MCF7. Description: CellTiterGlo viability assay, MCF7. The following applies: Homo sapiens, MCF7, 72 h, read-out: IC50 MCF7. The method, then: as §1
Another test deals with Murine leukemia L1210. The experiment in a line: Cell proliferation (Coulter count) assay, L1210. The conditions noted are these: Mus musculus, 48 h, read-out: absolute IC50, L1210. In short, it runs like this: as §3
The subject of test [1] is KG1a leukaemic stem cell compartment (Lin−/CD34+/CD38−/CD123+). The experiment in a line: Leukaemic stem cell compartment in KG1a. The following applies: for KG-1a (CD34+/CD38−/CD123+) % compartment: LSC as percentage of viable cells left, 72 hrs.
The subject of another test is KG-1. Description: CellTiterGlo viability assay, KG-1. The following applies: Homo sapiens, KG-1, 72 h, read-out: IC50 KG-1. The method in brief: as §2
The test system of another test is HL-60. Description: CellTiterGlo viability assay, HL-60. The conditions noted are these: Homo sapiens, HL-60, 72 h, read-out: IC50 HL-60. In short, it runs like this:
as §2

The test system of a further test is K562. The experiment in a line: CellTiterGlo viability assay, K562. The following applies: Homo sapiens, K562, 72 h, read-out: IC50 K562. The method in brief: as §2
Another test relates to MV4-11. Description: CellTiterGlo viability assay, MV4-11. The following applies: Homo sapiens, MV4-11, 72 h, read-out: IC50 MV4-11. In short, it runs like this:
as §2

For another test, the system named is Jurkat. The experiment in a line: CellTiterGlo viability assay, Jurkat. The conditions noted are these: Homo sapiens, 72 h, read-out: IC50 Jurkat. The method, then: as §1

The record followed here is patent publication US20190375778A1, “ADENOSINE DERIVATIVES FOR USE IN THE TREATMENT OF CANCER” (NuCana plc, priority 2016, published 2019).

Molecules are shown by their SMILES. pIC50: −log10 of the molar value.

What is called pIC50 is the IC50 on a negative log10 scale, so that one unit is a factor of ten. Take `C[C@H](NP(=O)(OC[C@H]1O[C@@H](n2c(Cl)nc3c(N)ncnc32)C(O)C1O)Oc1cccc2ccccc12)C(=O)OCc1ccccc1` (stereo partly drawn) [Compound D, (2S)-Benzyl 2-(((((2R,3S,4R,5R)-5-(6-amino-8-chloro-9H-purin-9-yl)-3,4-dihydroxy-tetrahydrofuran-2-yl)methoxynaphthalene-1-yloxy)phosphoryl)amino)propanoate]: the pIC50 in the test on BxPC-3 is 4.82 to 5.30; in the test with HEL92.1.7, 5.30 to 7.00; with human T-lymphocyte CEM, 5.30 to 7.00; with RL it was 4.82 to 5.30; in the test on MCF7 it was 5.30 to 7.00; in the test on Murine leukemia L1210 it was 4.82 to 5.30. In addition, the negative logarithm of the IC50 (pIC50) with KG-1 was 4.82 to 5.30; in the test on HL-60, 4.82 to 5.30; in the test on K562 it was 5.30 to 7.00; in the test with MV4-11 it was 5.30 to 7.00; in the test with Jurkat it was 5.30 to 7.00. In test [1] (% LSC compartment versus the series' control), the “Change relative to control (%)” value is listed as −0.8%. In addition, the “KG-1a (CD34+/CD38−/CD123+) % compartment” value in test [1] amounted to 2.5%.

As to `CCCCCOC(=O)[C@H](C)NP(=O)(OC[C@H]1O[C@@H](n2c(Cl)nc3c(N)ncnc32)C(O)C1O)Oc1cccc2ccccc12` (stereo partly drawn) [Compound E, (2S)-Pentyl 2-(((((2R,3S,4R,5R)-5-(6-amino-8-chloro-9H-purin-9-yl)-3,4-dihydroxy-tetrahydrofuran-2-yl)methoxnaphthalene-1-yloxy)phosphoryl)amino)propanoate], the pIC50 with BxPC-3 was 4.82 to 5.30; with HEL92.1.7, 5.30 to 7.00; with human T-lymphocyte CEM, 5.30 to 7.00; in the test with RL, 4.82 to 5.30; in the test on MCF7 it was 5.30 to 7.00; in the test on Murine leukemia L1210 it was 4.82 to 5.30. Further, the pIC50 with KG-1, in the test with HL-60, in the test with K562, in the test on MV4-11 and in the test on Jurkat was 5.30 to 7.00 each time. In addition, the “KG-1a (CD34+/CD38−/CD123+) % compartment” value in test [1] is 3.5%.
